Target: T1, CXCR2 (Homo sapiens, UniProt P25025)
T1 construct: endogenous in cells; host or cells: neutrophils (isolated primary cells)
T1 sequence (P25025 1-360): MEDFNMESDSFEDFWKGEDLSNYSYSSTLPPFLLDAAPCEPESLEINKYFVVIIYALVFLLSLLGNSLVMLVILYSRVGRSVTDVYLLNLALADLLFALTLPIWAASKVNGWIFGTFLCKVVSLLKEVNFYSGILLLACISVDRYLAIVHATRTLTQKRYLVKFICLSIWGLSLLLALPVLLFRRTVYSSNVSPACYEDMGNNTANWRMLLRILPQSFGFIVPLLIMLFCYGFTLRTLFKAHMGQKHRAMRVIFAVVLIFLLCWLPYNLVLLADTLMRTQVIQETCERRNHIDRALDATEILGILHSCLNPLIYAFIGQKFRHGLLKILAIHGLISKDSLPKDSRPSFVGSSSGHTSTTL
Experiment: Sequential calcium flux in neutrophils to IL-8 after SB225002 pretreatment
Assay type: cell-based
Settings: 1 pM SB225002; IL-8 1.2 μM and 1.2 μM or 600 nM and 1.2 μM; p<0.05
Procedure: Calcium flux in neutrophils in response to IL-8 was measured as previously described (Mahon M. J., et al. 2004 J Biol Chem 279:23550-8). Briefly, isolated cells (˜10^7/ml) were transferred into a balanced salt solution (127 mM NaCl, 3.8 mM KCl, 1.2 mM KH2PO4, 1.2 mM CaCl2, 0.9 mM MgCl2, 5 mM glucose, and 10 mM HEPES, pH 7.4), incubated for 45 min at room temperature with 1.25 μM Fura-2 acetoxymethyl ester (Molecular Probes, Eugene, Oreg.), washed with the balanced salt solution, and unloaded for 15 min at room temperature. […] Calcium flux in response to indicated concentrations of IL-8 (Akahoshi T., et al. 1994 Lymphokine Cytokine Res 13:113-6) was measured by fluorescence of cells excited at 340 and 380 nm using a PTI Deltascan dual-wavelength fluorimeter (Photon Technologies Incorporated, Lawrenceville, N.J.), observed through a Nikon Diaphot 200 microscope (Melville, N.Y.) and Sensys charge-coupled device camera (Photometrics, Ltd., Tucson, Ariz.), and analyzed using the Poenie-Tsien ratio with Imagemaster 2 software (Photon Technologies Incorporated). Signaling responses to IL-8 at designated concentrations were calibrated against maximal calcium flux as determined by treatment with 5 μM ionomycin (Sigma). CXCR2 expression on neutrophils pre- and post-exposure to 120 nM, 1.2 μM and 2.4 μM IL-8 was determined using PE-labelled anti-CXCR2 IgGl antibody (R & D systems). […]

## O=C(Nc1ccc([N+](=O)[O-])cc1O)Nc1ccccc1Br [SB225002]
  sequential peaks of calcium flux following IL-8 stimulation: significantly reduced
